# Data taken from ChEMBL document CHEMBL1201862, “PubChem BioAssay data set” (2004).
# Calls of active or inactive are those of the source.
# How the values were obtained:
# [1] = target: T1, Protein Tat (Human immunodeficiency virus type 1 group M subtype B (isolate HXB2)(HIV-1), UniProt P04608); format: functional;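 further: tat binding to TAR RNA read out by fluorescence polarization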
# T1 sequence (P04608 whole entry): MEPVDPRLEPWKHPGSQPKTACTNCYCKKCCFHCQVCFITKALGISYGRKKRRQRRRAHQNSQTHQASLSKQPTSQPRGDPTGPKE
# [2] = Luminescence-based cell-based high throughput dose response assay to identify activators of the DAF-12 from the parasite S. stercoralis (ssDAF-12).; format: functional
# [3] = target: T2, Oxysterols receptor LXR-beta (Homo sapiens, UniProt P55055); assay: LXR agonists, Gal4 luciferase reporter, dose response, counter-screen for ssDAF-12 agonist project, cell-based, luminescence, HEK293, S. stercoralis campaign (AID 720737); format: functional; conditions: read-out: IC50 (the source's name)
# T2 sequence (P55055 whole entry): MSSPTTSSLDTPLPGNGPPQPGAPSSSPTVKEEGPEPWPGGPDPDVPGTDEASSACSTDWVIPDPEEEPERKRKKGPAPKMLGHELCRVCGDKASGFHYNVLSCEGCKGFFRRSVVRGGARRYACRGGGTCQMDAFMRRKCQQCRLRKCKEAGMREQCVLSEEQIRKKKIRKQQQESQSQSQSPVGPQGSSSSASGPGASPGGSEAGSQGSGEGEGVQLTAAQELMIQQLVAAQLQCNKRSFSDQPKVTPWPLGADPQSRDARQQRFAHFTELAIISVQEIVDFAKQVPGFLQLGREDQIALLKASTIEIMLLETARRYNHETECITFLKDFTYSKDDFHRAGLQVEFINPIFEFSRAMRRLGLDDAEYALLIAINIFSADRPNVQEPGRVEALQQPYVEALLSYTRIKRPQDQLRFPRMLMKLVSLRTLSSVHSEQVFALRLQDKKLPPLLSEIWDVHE
# [4] = Trypanosoma cruzi growth suppression in host cells – NIH3T3 host cells, beta-gal luminescence, confirmation (AID 2044); format: functional, cell-based;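 further: intracellular parasites grown in NIH/3T3 mouse fibroblasts as host cells; luminescent beta-galactosidase reporter signal from transgenic T. cruzi replicating inside host cells; inhibitors lower the luminescence signal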
# [5] = NIH3T3 cell viability loss – ATP luminescence, mouse fibroblasts, counter-screen, dose response (AID 2010); format: functional, cell-based;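 further: cells exposed to compound for about 90 hours before reading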
# [6] = target: T3, Fatty acid synthase (Homo sapiens, UniProt P49327); assay: inhibition of human FAS-TE enzyme activity – biochemical, kinetic fluorescence intensity, dose response (AID 624326); format: functional;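 further: rate of fluorescence rise from hydrolysis of a fluorogenic O-methyl fluorescein ester substrate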
# T3 sequence (P49327 whole entry): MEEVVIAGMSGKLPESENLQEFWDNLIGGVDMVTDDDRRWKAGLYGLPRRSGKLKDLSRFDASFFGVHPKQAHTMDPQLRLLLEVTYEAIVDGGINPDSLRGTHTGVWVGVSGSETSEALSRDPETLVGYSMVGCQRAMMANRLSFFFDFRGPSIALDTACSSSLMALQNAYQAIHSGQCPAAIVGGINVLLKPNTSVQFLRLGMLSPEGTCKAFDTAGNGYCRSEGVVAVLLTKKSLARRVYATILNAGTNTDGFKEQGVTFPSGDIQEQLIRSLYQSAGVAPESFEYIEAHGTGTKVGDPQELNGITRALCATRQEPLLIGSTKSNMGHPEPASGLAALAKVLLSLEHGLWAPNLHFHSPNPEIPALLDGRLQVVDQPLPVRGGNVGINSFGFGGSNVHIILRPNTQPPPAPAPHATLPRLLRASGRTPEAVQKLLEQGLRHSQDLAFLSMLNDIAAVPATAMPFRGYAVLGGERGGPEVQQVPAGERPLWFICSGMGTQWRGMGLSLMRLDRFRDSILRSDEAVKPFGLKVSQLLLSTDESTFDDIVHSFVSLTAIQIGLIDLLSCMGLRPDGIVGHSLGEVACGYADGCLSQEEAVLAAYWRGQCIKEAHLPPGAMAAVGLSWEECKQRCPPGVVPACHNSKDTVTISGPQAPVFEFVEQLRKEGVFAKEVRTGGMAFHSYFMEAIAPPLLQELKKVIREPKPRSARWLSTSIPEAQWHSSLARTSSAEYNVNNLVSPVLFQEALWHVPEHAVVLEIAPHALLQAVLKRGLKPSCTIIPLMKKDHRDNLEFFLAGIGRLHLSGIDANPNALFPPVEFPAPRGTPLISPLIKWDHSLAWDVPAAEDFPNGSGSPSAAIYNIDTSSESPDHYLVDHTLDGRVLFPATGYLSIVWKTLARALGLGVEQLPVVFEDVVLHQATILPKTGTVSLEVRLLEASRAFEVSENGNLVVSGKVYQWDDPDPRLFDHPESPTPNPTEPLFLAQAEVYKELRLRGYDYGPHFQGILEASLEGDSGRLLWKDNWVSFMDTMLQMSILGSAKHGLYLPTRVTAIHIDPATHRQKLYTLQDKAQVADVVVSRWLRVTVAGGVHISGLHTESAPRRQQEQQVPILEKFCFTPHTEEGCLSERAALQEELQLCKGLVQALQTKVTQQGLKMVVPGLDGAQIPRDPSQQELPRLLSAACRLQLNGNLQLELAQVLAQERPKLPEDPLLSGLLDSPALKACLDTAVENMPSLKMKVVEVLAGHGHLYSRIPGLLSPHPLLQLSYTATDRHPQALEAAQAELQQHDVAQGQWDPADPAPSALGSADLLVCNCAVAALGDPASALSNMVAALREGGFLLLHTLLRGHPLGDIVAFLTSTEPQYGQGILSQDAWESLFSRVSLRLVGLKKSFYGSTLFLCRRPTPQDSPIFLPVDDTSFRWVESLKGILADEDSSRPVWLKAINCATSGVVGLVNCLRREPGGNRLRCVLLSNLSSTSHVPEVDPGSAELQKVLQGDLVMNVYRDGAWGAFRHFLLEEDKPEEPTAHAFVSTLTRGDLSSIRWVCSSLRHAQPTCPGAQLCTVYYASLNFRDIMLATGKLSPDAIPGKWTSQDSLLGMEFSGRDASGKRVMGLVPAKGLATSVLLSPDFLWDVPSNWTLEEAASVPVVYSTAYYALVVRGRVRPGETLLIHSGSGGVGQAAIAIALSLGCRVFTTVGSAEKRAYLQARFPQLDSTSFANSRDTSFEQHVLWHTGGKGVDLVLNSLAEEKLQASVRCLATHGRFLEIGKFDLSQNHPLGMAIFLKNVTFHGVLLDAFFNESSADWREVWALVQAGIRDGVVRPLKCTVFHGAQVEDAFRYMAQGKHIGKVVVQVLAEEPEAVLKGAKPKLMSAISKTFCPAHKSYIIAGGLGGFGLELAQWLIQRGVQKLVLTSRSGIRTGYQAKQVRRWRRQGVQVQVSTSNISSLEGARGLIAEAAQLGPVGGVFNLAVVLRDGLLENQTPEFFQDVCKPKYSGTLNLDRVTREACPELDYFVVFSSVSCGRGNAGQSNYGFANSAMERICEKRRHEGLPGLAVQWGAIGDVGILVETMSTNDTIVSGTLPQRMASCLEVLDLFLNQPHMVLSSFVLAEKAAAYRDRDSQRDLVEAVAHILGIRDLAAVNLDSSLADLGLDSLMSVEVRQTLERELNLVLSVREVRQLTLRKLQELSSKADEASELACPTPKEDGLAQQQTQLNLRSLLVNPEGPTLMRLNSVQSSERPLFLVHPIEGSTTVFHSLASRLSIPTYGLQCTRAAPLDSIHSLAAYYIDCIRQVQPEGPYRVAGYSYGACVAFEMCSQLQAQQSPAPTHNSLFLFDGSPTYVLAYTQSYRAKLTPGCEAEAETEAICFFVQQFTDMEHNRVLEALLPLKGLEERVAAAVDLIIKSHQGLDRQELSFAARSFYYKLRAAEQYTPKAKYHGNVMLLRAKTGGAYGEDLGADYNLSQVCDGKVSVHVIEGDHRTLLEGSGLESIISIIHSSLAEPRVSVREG
# [7] = target: T3, Fatty acid synthase; assay: inhibition of human FAS-TE enzyme activity – biochemical, endpoint fluorescence intensity, uHTS hits, dose response (AID 624327); format: functional;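 further: fluorescence from hydrolysis of an O-methyl fluorescein acyl ester substrate by the enzyme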
# [8] = test system: Vero; assay: mammalian cell viability reduction – secondary assay, cytotoxicity control for West Nile virus antiviral project, dose response (AID 1650); format: functional; conditions: Chlorocebus sabaeus
# [9] = viability loss in THP-1 monocytes – THP-1 cells, cytotoxicity control for Vif-APOBEC3G degradation inhibitor project, dose response (AID 1117359); format: functional; conditions: THP-1
# [10] = target: T4, Galanin receptor type 3 (Homo sapiens, UniProt O60755); assay: Fluorescence-based cell-based primary high throughput dose response assay to identify antagonists of the Galanin Receptor 3 (GalR3).; format: functional
# T4 sequence (O60755 whole entry): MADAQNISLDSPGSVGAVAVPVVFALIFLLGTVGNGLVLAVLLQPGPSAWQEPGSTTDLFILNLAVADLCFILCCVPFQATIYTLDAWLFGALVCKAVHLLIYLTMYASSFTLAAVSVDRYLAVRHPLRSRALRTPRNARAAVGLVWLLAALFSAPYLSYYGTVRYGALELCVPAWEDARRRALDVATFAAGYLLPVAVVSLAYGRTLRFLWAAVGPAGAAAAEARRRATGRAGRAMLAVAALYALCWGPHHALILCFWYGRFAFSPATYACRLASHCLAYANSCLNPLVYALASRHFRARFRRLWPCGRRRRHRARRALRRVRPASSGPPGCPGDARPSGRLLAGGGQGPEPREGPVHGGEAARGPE
# [11] = cells; format: functional, cell-based; conditions: HEK-CNG
# [12] = target: Luciferin 4-monooxygenase (Photinus pyralis, UniProt P08659); assay: inhibition of purified Photinus pyralis luciferase – biochemical, luminescence, dose response (AID 1891)
# Chain of Luciferin 4-monooxygenase (P08659 whole entry): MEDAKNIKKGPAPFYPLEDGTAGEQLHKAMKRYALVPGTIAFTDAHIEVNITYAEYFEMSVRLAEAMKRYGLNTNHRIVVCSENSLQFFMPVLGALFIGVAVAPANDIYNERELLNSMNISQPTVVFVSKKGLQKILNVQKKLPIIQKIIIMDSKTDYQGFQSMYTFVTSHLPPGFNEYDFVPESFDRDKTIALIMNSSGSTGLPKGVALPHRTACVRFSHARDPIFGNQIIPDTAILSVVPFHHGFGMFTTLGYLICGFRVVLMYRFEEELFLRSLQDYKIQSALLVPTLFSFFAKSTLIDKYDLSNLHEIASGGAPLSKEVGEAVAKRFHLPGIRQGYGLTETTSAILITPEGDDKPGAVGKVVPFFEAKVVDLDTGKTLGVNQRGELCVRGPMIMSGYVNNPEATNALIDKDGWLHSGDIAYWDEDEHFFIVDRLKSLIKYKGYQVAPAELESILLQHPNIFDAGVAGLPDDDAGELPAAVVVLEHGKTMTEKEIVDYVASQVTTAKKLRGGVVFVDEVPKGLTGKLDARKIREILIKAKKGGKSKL
# [13] = Luminescence Cell-Based Dose Confirmation HTS to Identify Inhibitors of Platelet Dense Granule Release. [Related pubchem assays: 1663 (Primary HTS), 1678 (Summary of Project)]; format: functional
# [14] = alpha-synuclein stem-loop luciferase translation blockers – H4 neuroglioma cells, luminescence, confirmation (AID 1988); format: functional, cell-based
# [15] = Luminescence Cell-Based Dose Response HTS to Identify Inhibitors of 5'UTR Stem-Loop Driven Prion Protein mRNA Translation in H4 Neuroglioblastoma Cells. [Related pubchem assays: 1827 (Project Summary), 1813 (Primary HTS)]; format: functional
# [16] = HGIII-sPLA2 enzyme inhibition potency – biochemical, QFRET, IC50, dose response (AID 743457);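 further: green fluorescence rise as the enzyme cleaves BODIPY PC-A2 in liposomes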
# [17] = target: T5, Aspartyl aminopeptidase (Plasmodium falciparum 3D7, UniProt Q8I2J3); assay: Counterscreen for inhibitors of M1 and M17 aminopeptidases: QFRET-based biochemical high throughput dose response assay for inhibitors of the Plasmodium falciparum M18 Aspartyl Aminopeptidase (PFM18AAP). [Related PubChem assays: 1619 (Screening assay (M17LAP inhibitors).), 1445 (Screening assay (M1AAP inhibitors).)]
# T5 sequence (Q8I2J3 whole entry): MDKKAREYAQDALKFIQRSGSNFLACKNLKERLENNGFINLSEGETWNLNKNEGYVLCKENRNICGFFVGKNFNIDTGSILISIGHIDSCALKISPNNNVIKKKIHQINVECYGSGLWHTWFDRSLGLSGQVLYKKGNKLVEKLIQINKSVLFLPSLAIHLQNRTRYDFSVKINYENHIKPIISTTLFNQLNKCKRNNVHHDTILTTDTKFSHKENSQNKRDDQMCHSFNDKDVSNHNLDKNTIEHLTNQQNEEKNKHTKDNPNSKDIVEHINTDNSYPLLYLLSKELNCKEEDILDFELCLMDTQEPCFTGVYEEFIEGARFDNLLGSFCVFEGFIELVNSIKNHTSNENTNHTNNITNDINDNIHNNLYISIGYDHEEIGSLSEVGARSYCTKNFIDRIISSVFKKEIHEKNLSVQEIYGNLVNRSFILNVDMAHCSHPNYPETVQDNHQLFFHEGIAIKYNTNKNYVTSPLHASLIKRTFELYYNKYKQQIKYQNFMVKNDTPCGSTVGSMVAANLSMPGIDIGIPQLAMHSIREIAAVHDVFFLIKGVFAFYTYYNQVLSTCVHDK
# [18] = target: Procathepsin L (Homo sapiens, UniProt P07711); assay: CTSL1 protease inhibition – biochemical, QFRET, 1536-well, counter-screen for M1/M17 aminopeptidase inhibitor project, dose response (AID 2214)
# Chain of Procathepsin L (P07711 whole entry): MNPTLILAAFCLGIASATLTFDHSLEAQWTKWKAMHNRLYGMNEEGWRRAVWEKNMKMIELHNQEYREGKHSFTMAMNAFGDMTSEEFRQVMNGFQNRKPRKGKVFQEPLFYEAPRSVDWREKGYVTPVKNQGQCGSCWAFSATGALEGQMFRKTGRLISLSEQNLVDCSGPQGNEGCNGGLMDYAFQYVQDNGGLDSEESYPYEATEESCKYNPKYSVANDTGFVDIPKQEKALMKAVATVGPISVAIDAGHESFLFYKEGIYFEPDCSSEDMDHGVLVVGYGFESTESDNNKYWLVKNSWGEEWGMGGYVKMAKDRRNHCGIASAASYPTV
# [19] = target: T6, Leucine aminopeptidase (Plasmodium falciparum 3D7, UniProt Q8IL11); assay: P. falciparum M17LAP inhibitors, primary screen, biochemical, fluorogenic H-Leu-NHMec substrate, 1536-well (AID 1619); format: functional
# T6 sequence (Q8IL11 whole entry): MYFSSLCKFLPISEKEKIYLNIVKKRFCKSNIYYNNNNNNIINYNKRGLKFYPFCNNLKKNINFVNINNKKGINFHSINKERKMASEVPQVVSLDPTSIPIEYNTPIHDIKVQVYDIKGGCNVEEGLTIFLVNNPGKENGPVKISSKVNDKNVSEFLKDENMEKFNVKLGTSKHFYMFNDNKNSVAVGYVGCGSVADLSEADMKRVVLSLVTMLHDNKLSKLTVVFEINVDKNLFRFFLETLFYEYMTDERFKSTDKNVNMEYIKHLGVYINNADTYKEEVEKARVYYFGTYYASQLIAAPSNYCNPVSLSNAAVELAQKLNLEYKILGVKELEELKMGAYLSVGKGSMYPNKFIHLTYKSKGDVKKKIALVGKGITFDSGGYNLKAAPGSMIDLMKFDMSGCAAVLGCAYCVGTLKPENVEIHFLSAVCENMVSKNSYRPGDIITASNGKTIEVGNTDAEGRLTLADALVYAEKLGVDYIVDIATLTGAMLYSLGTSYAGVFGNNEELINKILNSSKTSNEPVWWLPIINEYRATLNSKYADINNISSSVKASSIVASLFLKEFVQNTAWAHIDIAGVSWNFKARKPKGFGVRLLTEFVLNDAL
# [20] = growth inhibition of yeast DHODH-expressing 3D7 parasites – SYBR Green, dry powder samples, dose response (AID 1159570); format: functional, cell-based;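 further: parasite growth measured after 72 hours of compound exposure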
# [21] = OVCAR8 cell viability loss – plate reader, dry powder samples, PAX8 project, dose response (AID 743197); format: functional, cell-based; conditions: OVCAR-8
# [22] = toxicity to human HepG2 hepatoma cells – cell-based, plate reader, dry powder samples, cytotoxicity control, dose response (AID 1159569); format: functional;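 further: inhibitor potency with signal falling toward the positive control level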
# [23] = toxicity toward HepG2 liver cells – cell-based, plate reader, cherry-pick, antagonist series, cytotoxicity control, dose response (AID 743416); format: functional
# [24] = target: Paired box protein Pax-8 (Homo sapiens, UniProt Q06710); assay: PAX8 transcriptional activity inhibition in RMG-I – RMG-I cells, luciferase, cherry-pick, dose response (AID 687027); format: functional, cell-based;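 further: luciferase reporter driven by Pax8 target thyroperoxidase promoter measured by SteadyGlo luminescence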
# Chain of Paired box protein Pax-8 (Q06710 whole entry): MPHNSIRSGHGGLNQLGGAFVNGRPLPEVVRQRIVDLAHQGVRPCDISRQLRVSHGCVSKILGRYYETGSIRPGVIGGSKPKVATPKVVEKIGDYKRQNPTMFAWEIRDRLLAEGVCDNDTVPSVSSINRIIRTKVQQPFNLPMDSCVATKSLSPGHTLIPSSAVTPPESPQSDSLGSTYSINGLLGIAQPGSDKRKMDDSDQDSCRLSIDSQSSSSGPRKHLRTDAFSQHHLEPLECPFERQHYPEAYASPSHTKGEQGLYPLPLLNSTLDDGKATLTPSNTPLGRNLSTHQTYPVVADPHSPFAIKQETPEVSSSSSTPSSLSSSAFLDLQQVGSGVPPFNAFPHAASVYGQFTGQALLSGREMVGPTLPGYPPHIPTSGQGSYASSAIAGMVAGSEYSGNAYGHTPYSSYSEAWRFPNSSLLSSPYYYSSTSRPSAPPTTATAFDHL
# [25] = A549 cell cytotoxicity, dose response, cytotoxicity control, plate reader, cherry-pick, antagonist series (AID 743412); format: functional, cell-based
# [26] = Dd2 malaria parasite growth inhibition potency – SYBR Green, dry powder samples, dose response (AID 1159566); format: functional, cell-based;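 further: potency for growth inhibition with lower SYBR green DNA signal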
# [27] = blockade of melanocortin 4 receptor signaling – cell-based, plate reader, cherry pick, counter-screen for LGR2 antagonist project, dose response (AID 743444); format: functional;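 further: transfected HEK 293 cells stimulated with alpha-MSH peptide; potency of inhibitors of the alpha-MSH evoked signal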
# [28] = toxicity to human hepatoma HepG2 cells – cell-based, cherry-picked samples, cytotoxicity control, dose response (AID 1159577); format: functional
# [29] = growth inhibition of PfATP4-mutant resistant parasites – NITD609-resistant line, SYBR Green, dry powder, dose response (AID 1159571); format: functional, cell-based;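 further: parasites synchronized at ring stage by sorbitol before testing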
# [30] = blockers of bursicon-stimulated LGR2 cAMP reporter – cell-based, HEK293, CRE-luciferase reporter, cherry pick, set 2, dose response (AID 743343); format: functional;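 further: transfected cells were stimulated with diluted bursicon conditioned medium after compound addition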
# [31] = P. falciparum Dd2 growth inhibitors, dose response, SYBR Green, cherry-picked samples (AID 1159567); format: functional, cell-based
# [32] = test system: INS1; assay: INS-1E survival protection against cytokine death – cell-based, luminescence, retest, dose response (AID 449756); format: functional; conditions: Rattus norvegicus;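 further: cell death triggered by IL-1 beta plus TNF-alpha plus IFN-gamma mixture; protective hits raise ATP signal compared with cytokine alone wells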
compound,measurement,setting,value
COc1ccccc1/C=C(/CC(=O)NCc1ccccc1)c1nc2ccccc2s1,IC50,[1],> 100 µM (active)
CCOc1ccc(-c2noc(COC)n2)cc1OC,IC50,[2],> 67.5 µM (inactive)
same,EC50,[3],> 67.5 µM (inactive)
O=C1OC(c2ccc(F)cc2)=C/C1=C\c1ccc([N+](=O)[O-])o1,IC50,[1],> 100 µM (active)
same,EC50,[4],0.501 µM (active)
same,EC50,[5],> 60 µM (not active)
Cc1nc2ccc([N+](=O)[O-])cc2c(=O)n1Cc1ccc(Cl)cc1,IC50,[6],1.05 µM (active)
same,IC50,[7],0.906 µM (active)
CCc1ccc(-c2nc(CN3CCC(C(=O)N4CCN(c5ccccc5)CC4)CC3)c(C)o2)cc1,CC50,[8],16.3 µM (active)
O=S(=O)(Nc1ccc2[nH]c(O)nc2c1)c1ccc(F)c(Cl)c1,CC50,[9],> 40 µM (active)
FC(F)(F)c1ccc(Oc2ccc(Cl)cc2Br)nc1,IC50,[2],> 67.5 µM (inactive)
same,EC50,[3],> 67.5 µM (inactive)
CCOC(=O)C1CCN(C(=O)COc2ccc([N+](=O)[O-])cc2)CC1,IC50,[6],9.05 µM (active)
same,IC50,[7],9.85 µM (active)
CC1CC(=O)NN=C1c1ccc(N)c([N+](=O)[O-])c1 (stereo unspecified),IC50,[10],0.26 µM (active)
same,EC50,[11],> 29.9 µM (inactive)
same,EC50,[12],> 112 µM (not active)
same,EC50,[13],< 0.088 µM (active)
O=C(COC(=O)c1cccc([N+](=O)[O-])c1)NCc1cccs1,IC50,[6],18.7 µM (active)
same,IC50,[7],13.9 µM (active)
COc1cccc(C(=O)Cn2c(=N)n(C)c3ccccc32)c1,EC50,[14],6.57 µM (active)
same,IC50,[2],> 67.5 µM (inactive)
same,EC50,[3],> 67.5 µM (inactive)
same,EC50,[15],17.7 µM (active)
COc1cccc(C(=O)Oc2cc3c4c(c2)C(C)=CC(C)(C)N4C(=O)C3=O)c1,IC50,[16],43.2 µM (inactive)
Cc1cc(O)nc(SCC(=O)Nc2cccc(C(F)(F)F)c2)n1,IC50,[17],> 73.5 µM (not active)
same,IC50,[18],> 59.6 µM (not active)
same,IC50,[19],7.15 µM (active)
N=C(N)SCc1ccc(Cl)c2ccccc12,IC50,[16],> 122 µM (inactive)
C[C@@H]1CN([C@H](C)CO)C(=O)c2c(c3ccccc3n2C)-c2ccccc2CO[C@@H]1CN(C)S(=O)(=O)c1ccc(C(F)(F)F)cc1,AC50,[20],3.33 µM (active)
same,AC50,[21],> 70 µM (inactive)
same,AC50,[22],15.1 µM (active)
same,AC50,[23],17.7 µM (active)
same,AC50,[24],5.24 µM (active)
same,AC50,[25],19.4 µM (active)
same,AC50,[26],1.76 µM (active)
same,AC50,[27],35.3 µM (active)
same,AC50,[28],> 42 µM (inactive)
same,AC50,[29],2.62 µM (active)
same,AC50,[30],25.9 µM (active)
same,AC50,[31],2.41 µM (active)
CCCOC(=O)/C(C(=N)NCc1ccccc1)=C(/O)OCCC,AC50,[32],97 µM (active)
same,CC50,[9],> 40 µM (active)
COc1cccc(C#Cc2ccc([C@@H]3[C@@H](CO)N(C(=O)C4CCCC4)[C@H]3C#N)cc2)c1,AC50,[28],> 39 µM (inactive)
same,AC50,[31],4.4 µM (active)
Cc1ccc(-c2ccc3c(c2)O[C@@H](CN(C)Cc2ccncc2)[C@H](C)CN([C@@H](C)CO)S3(=O)=O)cc1,AC50,[20],2.23 µM (active)
same,AC50,[22],24.4 µM (active)
same,AC50,[26],2.2 µM (active)
same,AC50,[28],> 39 µM (inactive)
same,AC50,[29],2.19 µM (active)
same,AC50,[31],2.73 µM (active)
